Assays:
Assay in all cases: relative viability (nuclei count vs DMSO), 5 days (fraction); higher = more cells survive
AGI-6780 + Phenformin = compound: O=C(Nc1cccc(C(F)(F)F)c1)Nc1cc(S(=O)(=O)NC2CC2)ccc1-c1ccsc1 [AGI-6780] + N=C(N)NC(=N)NCCc1ccccc1 [Phenformin] (partner 250 µM)
Procedure, shortened: (§1)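 Dosing by pin tool came one day after lung cancer cell lines were seeded in 1536-well plates, using either one drug or a fixed anchor-drug dose plus five library-drug doses (not always all listed) in √10 steps. After 5 days, nuclei were counted on 4× images. Relative viability is treated-well nuclei count divided by vehicle-well nuclei count, and values are medians of duplicate plates.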

AGI-6780 + Lapatinib = compound: O=C(Nc1cccc(C(F)(F)F)c1)Nc1cc(S(=O)(=O)NC2CC2)ccc1-c1ccsc1 [AGI-6780] + CS(=O)(=O)CCNCc1ccc(-c2ccc3ncnc(Nc4ccc(OCc5cccc(F)c5)c(Cl)c4)c3c2)o1 [Lapatinib] (partner 2 µM)
Procedure, shortened: as §1

AGI-6780 + Olaparib = compound: O=C(Nc1cccc(C(F)(F)F)c1)Nc1cc(S(=O)(=O)NC2CC2)ccc1-c1ccsc1 [AGI-6780] + O=C(c1cc(Cc2n[nH]c(=O)c3ccccc23)ccc1F)N1CCN(C(=O)C2CC2)CC1 [Olaparib] (partner 8 µM)
Procedure, shortened: as §1

AGI-6780 + Trametinib = compound: O=C(Nc1cccc(C(F)(F)F)c1)Nc1cc(S(=O)(=O)NC2CC2)ccc1-c1ccsc1 [AGI-6780] + CC(=O)Nc1cccc(-n2c(=O)n(C3CC3)c(=O)c3c(Nc4ccc(I)cc4F)n(C)c(=O)c(C)c32)c1 [Trametinib] (partner 0.02 µM)
Procedure, shortened: as §1

| Cell Line | relative viability (AGI-6780 + Phenformin; first compound 0.08 µM) | relative viability (AGI-6780 + Phenformin; first compound 0.253 µM) | relative viability (AGI-6780 + Phenformin; first compound 0.8 µM) | relative viability (AGI-6780 + Phenformin; first compound 2.53 µM) | relative viability (AGI-6780 + Phenformin; first compound 8 µM) | relative viability (AGI-6780 + Lapatinib; first compound 0.08 µM) | relative viability (AGI-6780 + Lapatinib; first compound 0.253 µM) | relative viability (AGI-6780 + Lapatinib; first compound 0.8 µM) | relative viability (AGI-6780 + Lapatinib; first compound 2.53 µM) | relative viability (AGI-6780 + Lapatinib; first compound 8 µM) | relative viability (AGI-6780 + Olaparib; first compound 0.08 µM) | relative viability (AGI-6780 + Olaparib; first compound 0.253 µM) | relative viability (AGI-6780 + Olaparib; first compound 0.8 µM) | relative viability (AGI-6780 + Olaparib; first compound 2.53 µM) | relative viability (AGI-6780 + Olaparib; first compound 8 µM) | relative viability (AGI-6780 + Trametinib; first compound 0.08 µM) | relative viability (AGI-6780 + Trametinib; first compound 0.253 µM) | relative viability (AGI-6780 + Trametinib; first compound 0.8 µM) | relative viability (AGI-6780 + Trametinib; first compound 8 µM) | relative viability (AGI-6780 + Trametinib; first compound 2.53 µM) |
| --- | --- | --- | --- | --- | --- | --- | --- | --- | --- | --- | --- | --- | --- | --- | --- | --- | --- | --- | --- | --- |
| H3255 | 0.39 | 0.381 | 0.384 | 0.358 | 0.385 | 0.222 | 0.275 | 0.248 | 0.204 | 0.263 | 0.505 | 0.526 | 0.607 | 0.566 | 0.632 | 0.595 | 0.592 | 0.668 | 0.609 | – |
| LCLC-97TM1 | 0.402 | 0.409 | 0.419 | 0.439 | 0.436 | 0.803 | 1.61 | 1.14 | – | 1 | 0.41 | 0.532 | 0.394 | 0.264 | 0.378 | 0.173 | 0.21 | 0.152 | 0.197 | 0.159 |
| NCI-H3122 | 0.326 | 0.378 | 0.421 | 0.399 | 0.36 | 1.02 | 0.987 | 1.09 | 1.02 | 1.08 | 0.608 | 0.626 | 0.725 | 0.706 | 0.649 | 0.212 | 0.261 | 0.239 | 0.329 | 0.208 |
| HCC-366 | 0.615 | 0.667 | 0.589 | 0.321 | 0.682 | 1.05 | 1.08 | 1.01 | 1.1 | 1.05 | 0.369 | 0.38 | 0.364 | 0.258 | 0.426 | 0.395 | 0.375 | 0.365 | 0.301 | 0.156 |
| SK-LU-1 | 0.549 | 0.555 | – | 0.404 | 0.588 | 0.928 | 0.857 | 0.683 | 0.863 | 1.14 | 0.506 | 0.482 | 0.349 | 0.402 | 0.456 | 0.614 | 0.537 | 0.368 | 0.497 | 0.651 |
| NCI-H1944 | 0.212 | 0.215 | 0.213 | – | 0.217 | 0.928 | 0.861 | 0.784 | 0.544 | 0.92 | 0.464 | 0.412 | 0.448 | – | 0.395 | 0.458 | 0.417 | 0.463 | 0.425 | – |
| HCC-15 | 0.551 | 0.525 | 0.505 | 0.428 | 0.47 | 0.896 | 0.824 | 0.971 | 0.83 | 0.856 | 0.724 | 0.808 | 0.703 | 0.657 | 0.76 | 0.369 | 0.426 | 0.349 | 0.369 | 0.309 |
